Results: patent US20250304563A1, “ACTIVATORS OF EFFECTOR T CELLS” (Orum Therapeutics, Inc., priority 2022, published 2025)

What was measured:
[1] = target: Cbl-b (36-427 aa truncated form, N-terminus Avi-tag) (Homo sapiens (Human), UniProt Q13191); experiment: Cbl-b binding: TR-FRET displacement of BODIPY-FL probe
Summary of the method: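 IC50 from loss of terbium–BODIPY-FL TR-FRET signal as compounds compete off a fluorescent Cbl-b inhibitor probe (1 uM) for 1 h at RT. Protein: N-Avi-tagged human Cbl-b 36-427 on streptavidin-terbium, 20 mM HEPES pH 7.5 buffer.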

Human primary T cells [2] = experiment: T cell activation: CD69 surface expression by flow cytometry; assay type: cell-based; settings: fold over anti-CD3 stimulated background normalized to Compound 141A; for CD69 1 nM: 1 nM compound; for CD69 10 nM: 10 nM compound; for CD69 100 nM: 100 nM compound
Summary of the method: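 Read-out is flow-cytometric CD69 surface staining, expressed as fold increase over anti-CD3-stimulated background and normalized to Compound 141A. Human pan T cells from PBMC or LeukoPaks were plated on OKT3-coated wells in serum-free XVivo-15. Compound dilutions were added for 48 h at 37° C, 5% CO2.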

Human primary T cells [3] = experiment: T cell activation: secreted IFN-y; assay type: cell-based; settings: 48 hours, fold over background normalized to Compound 141A; for IFN-y 1 nM: 1 nM compound; for IFN-y 10 nM: 10 nM compound; for IFN-y 100 nM: 100 nM compound
Summary of the method: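 Values are binned ranges (A–D) of fold increase over anti-CD3/CD28 background, normalized to a reference compound, for IFN-γ in supernatants measured by bead array. Pan-T cells from donor PBMC or LeukoPaks were stimulated on anti-CD3-coated wells (10 μg/mL coating) in serum-free medium with compound for 48 h at 37 °C.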

Human primary T cells [4] = experiment: T cell activation: secreted IL-2; assay type: cell-based; settings: 48 hours, fold over background normalized to Compound 141A; for IL-2 1 nM: 1 nM compound; for IL-2 10 nM: 10 nM compound; for IL-2 100 nM: 100 nM compound
Summary of the method: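 IL-2 values are fold over anti-CD3/CD28 background, normalized to a reference compound and sorted into ranges. They come from supernatants of human pan-T cells captured on anti-CD3-coated plates and exposed 48 h, 37° C., to duplicate compound dilutions, measured with cytometric beads.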

Sequence of Cbl-b (36-427 aa truncated form, N-terminus Avi-tag) (Q13191 36-427): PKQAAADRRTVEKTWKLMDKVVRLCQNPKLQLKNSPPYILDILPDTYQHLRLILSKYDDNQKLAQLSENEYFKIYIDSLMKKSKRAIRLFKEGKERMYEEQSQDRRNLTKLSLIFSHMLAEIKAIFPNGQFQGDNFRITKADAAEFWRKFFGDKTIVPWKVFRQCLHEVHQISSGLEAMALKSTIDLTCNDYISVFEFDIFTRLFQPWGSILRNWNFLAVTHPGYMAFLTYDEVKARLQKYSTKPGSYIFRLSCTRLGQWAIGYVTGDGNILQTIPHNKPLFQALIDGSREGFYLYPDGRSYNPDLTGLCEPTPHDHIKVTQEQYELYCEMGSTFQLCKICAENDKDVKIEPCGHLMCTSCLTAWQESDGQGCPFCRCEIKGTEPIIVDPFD

| SMILES | IC50 [1] | CD69 1 nM (Human primary T cells [2]) | CD69 10 nM (Human primary T cells [2]) | CD69 100 nM (Human primary T cells [2]) | IFN-y 1 nM (Human primary T cells [3]) | IFN-y 10 nM (Human primary T cells [3]) | IFN-y 100 nM (Human primary T cells [3]) | IL-2 1 nM (Human primary T cells [4]) | IL-2 10 nM (Human primary T cells [4]) | IL-2 100 nM (Human primary T cells [4]) |
| --- | --- | --- | --- | --- | --- | --- | --- | --- | --- | --- |
| CCNc1cc(C2(c3nncn3C)CC(C)C2)cc(N2Cc3c(SC)cc(CN4CCC[C@H](C)C4)cc3C2=O)n1 (stereo partly drawn) [Compound 181, 2-[6-(ethylamino)-4-[(1r,3s)-3-methyl-1-(4-methyl-1,2,4-triazol-3-yl)cyclobutyl]pyridin-2-yl]-6-{[(3S)-3-methylpiperidin-1-yl]methyl}-4-(methylsulfanyl)-3H-isoindol-1-one] | 1 to 5 nM | C (values between 0.30 and 0.60: range “C”) | B (values between 0.61 and 0.80: range “B;”) | X (fold over background values between 1.11 and 1.6: range “X”) | B (values between 0.31 and 1.00: range “B;”) | B (values between 0.31 and 1.00: range “B;”) | A (fold over background between 1.10 and 2.00: range “A”) | D (values between 0.01 and 0.09: range “D.”) | C (values between 0.10 and 0.30: range “C”) | A (between 0.80 and 1.40: range “A”) |
| C[C@H]1CCCN(Cc2cc3c(c(C(F)(F)F)c2)CN(c2cc(C4(Cc5nncn5C)COC4)cc(NCc4c[nH]nn4)n2)C3=O)C1.O=C(O)C(F)(F)F [Compound 182, (S)-2-(6-(((1H-1,2,3-triazol-4-yl)methyl)amino)-4-(3-((4-methyl-4H-1,2,4-triazol-3-yl)methyl)oxetan-3-yl)pyridin-2-yl)-6-((3-methylpiperidin-1-yl)methyl)-4-(trifluoromethyl)isoindolin-1-one; trifluoroacetic acid] | 5.01 to 20 nM | C (values between 0.30 and 0.60: range “C”) | C (values between 0.30 and 0.60: range “C”) | C (values between 0.30 and 0.60: range “C”) | C (values between 0.10 and 0.30: range “C”) | C (values between 0.10 and 0.30: range “C”) | B (values between 0.31 and 1.00: range “B;”) | D (values between 0.01 and 0.09: range “D.”) | D (values between 0.01 and 0.09: range “D.”) | D (values between 0.01 and 0.09: range “D.”) |
| Cn1cnnc1CC1(c2cc(NCCC#N)nc(N3Cc4c(cc(CN5CCN(c6nccs6)CC5)cc4C(F)(F)F)C3=O)c2)COC1.O=C(O)C(F)(F)F [Compound 186, 3-((4-(3-((4-methyl-4H-1,2,4-triazol-3-yl)methyl)oxetan-3-yl)-6-(1-oxo-6-((4-(thiazol-2-yl)piperazin-1-yl)methyl)-4-(trifluoromethyl)isoindolin-2-yl)pyridin-2-yl)amino)propanenitrile; trifluoroacetic acid] | 5.01 to 20 nM | C (values between 0.30 and 0.60: range “C”) | C (values between 0.30 and 0.60: range “C”) | C (values between 0.30 and 0.60: range “C”) | C (values between 0.10 and 0.30: range “C”) | C (values between 0.10 and 0.30: range “C”) | B (values between 0.31 and 1.00: range “B;”) | D (values between 0.01 and 0.09: range “D.”) | D (values between 0.01 and 0.09: range “D.”) | D (values between 0.01 and 0.09: range “D.”) |
| C[C@H]1CCCN(Cc2cc3c(c(C(F)(F)F)c2)CN(c2cc(C4(Cc5nncn5C)COC4)cc(NC4CC(C#N)C4)n2)C3=O)C1.O=C(O)C(F)(F)F (stereo partly drawn) [Compound 190, (S)-3-((4-(3-((4-methyl-4H-1,2,4-triazol-3-yl)methyl)oxetan-3-yl)-6-(6-((3-methylpiperidin-1-yl)methyl)-1-oxo-4-(trifluoromethyl)isoindolin-2-yl)pyridin-2-yl)amino)cyclobutane-1-carbonitrile; trifluoroacetic acid] | 5.01 to 20 nM | C (values between 0.30 and 0.60: range “C”) | C (values between 0.30 and 0.60: range “C”) | B (values between 0.61 and 0.80: range “B;”) | C (values between 0.10 and 0.30: range “C”) | B (values between 0.31 and 1.00: range “B;”) | B (values between 0.31 and 1.00: range “B;”) | C (values between 0.10 and 0.30: range “C”) | C (values between 0.10 and 0.30: range “C”) | C (values between 0.10 and 0.30: range “C”) |
| Cn1cnnc1CC1(c2cccc(NC(=O)c3cc(CN4CC[C@H](OCCCCCCNC(=O)CCN5C(=O)C=CC5=O)C4)cc(C4CC4)n3)c2)COC1 [Compound 200] | 5.01 to 20 nM | – | C (values between 0.30 and 0.60: range “C”) | C (values between 0.30 and 0.60: range “C”) | C (values between 0.10 and 0.30: range “C”) | C (values between 0.10 and 0.30: range “C”) | C (values between 0.10 and 0.30: range “C”) | C (values between 0.10 and 0.30: range “C”) | C (values between 0.10 and 0.30: range “C”) | C (values between 0.10 and 0.30: range “C”) |
| C[C@H]1CCCN(Cc2cc3c(c(C(F)(F)F)c2)CN(c2cc(C4(Cc5nncn5C)COC4)cc(OCCOCCOCCOCCNC(=O)CCN4C(=O)C=CC4=O)n2)C3=O)C1 [Compound 201, 3-(2,5-dioxopyrrol-1-yl)-N-{2-[2-(2-{2-[(4-{3-[(4-methyl-1,2,4-triazol-3-yl)methyl]oxetan-3-yl}-6-(6-{[(3S)-3-methylpiperidin-1-yl]methyl}-1-oxo-4-(trifluoromethyl)-3H-isoindol-2-yl)pyridin-2-yl)oxy]ethoxy}ethoxy)ethoxy]ethyl}propanamide] | 1 to 5 nM | – | C (values between 0.30 and 0.60: range “C”) | C (values between 0.30 and 0.60: range “C”) | C (values between 0.10 and 0.30: range “C”) | C (values between 0.10 and 0.30: range “C”) | C (values between 0.10 and 0.30: range “C”) | C (values between 0.10 and 0.30: range “C”) | C (values between 0.10 and 0.30: range “C”) | C (values between 0.10 and 0.30: range “C”) |
